This is an account of results in EP0976754B1, “REMEDIES/PREVENTIVES FOR RESPIRATORY DISEASES” (POLA CHEMICAL INDUSTRIES, INC., priority 1997, dated 1998).

Assay [1] deals with airway-constriction reaction. The assay is described as follows: Inhibitory effect on airway-constriction reaction (in vivo), modified Konzet-Lössler method, acetylcholine-elicited. Conditions: Cavia porcellus, iv; test compound 100 mg/2 ml/kg in 1% CMC through esophageal cannula; acetylcholine 20 µg/kg i.v. at 15, 30, 60 and 120 minutes; anesthetized guinea pigs; read-out: Inhibitory rate (%) Acetylcholine. The method, then: (§1) A group of 6 male Hartley albino guinea pigs (250 to 350 g) was anesthetized with pentobarbital, and the tracheae, esophagi, carotid arteries and jugular veins thereof were cannulated. The experiment was performed by connecting the tracheotomic cannula to a respirator incorporated into a circuit of a bronchospasm transducer (modified Konzet-Lössler method), arresting the spontaneous respiration of each guinea pig with choline chloride succinate (1 mg/kg i.v.) and then practicing artificial ventilation, and an airway-constriction reaction was determined by using an overflow rate of ventilation as an index. Acetylcholine (20 µg/kg) or histamine (20 µg/kg) was intravenously administered upon elapsed time of 15, 30, 60 and 120 minutes after a test compound (100 mg/2 ml/kg) suspended in 1% CMC was administered through the esophageal cannula, thereby observing the airway-constriction reaction elicited. For the sake of comparison, theophylline (100 mg/2 ml/kg) commonly and widely used in the treatment for asthma was used. The inhibitory effect on the airway-constriction reaction was expressed by a value calculated as an inhibitory rate (%). It turns out that all the compounds according to the present invention have an excellent inhibitory effect on airway constriction.

Assay [2] relates to airway-constriction reaction. Put plainly: Inhibitory effect on airway-constriction reaction (in vivo), modified Konzet-Lössler method, histamine-elicited. Conditions: Cavia porcellus, iv; test compound 100 mg/2 ml/kg in 1% CMC through esophageal cannula; histamine 20 µg/kg i.v. at 15, 30, 60 and 120 minutes; anesthetized guinea pigs; read-out: Inhibitory rate (%) Histamine. On the procedure:
as §1

Assay [3] has as its system trachea. Put plainly: Tracheodilative effect (in vitro), Magnus method, trachea strips contracted with carbachol. Conditions: Cavia porcellus; relaxation of guinea pig trachea strips contracted with 1 x 10^-6 M carbachol; maximum relaxation by 10^-4 M isoproterenol = 100%; read-out: pIC50 value Carbachol (converted). The method, then: (§2) With respect to Compound 2, Compound 5, Compound 6, Compound 7 and Compound 16, the tracheodilative effect useful in treatment and/or prevention of respiratory diseases such as asthma was investigated by the Magnus method. A male Hartley albino guinea pig (250 to 300 g) was blow on the head and exsanguinated to death to enucleate its trachea. Strip specimens were prepared from the trachea. Each of the specimens was suspended in a Magnus tube filled with a Krebs-Henseleit solution kept at 37°C with supply of a mixed gas (95% O2, 5% CO2). A static tension of 1.0 g was loaded to record an isometric tension. Each of test compounds was cumulatively administered to the specimens separately contracted with 1 x 10^-6 M carbachol and 3 x 10^-6 M histamine to investigate its relaxing effect. After the cumulative administration, 10^-4 M isoproterenol was administered to identify the maximum relaxing effect on the trachea specimen. The maximum relaxation was regarded as 100%, and a negative logarithmic value of the concentration of the test compound, at which the specimen was relaxed by 50%, was calculated out, thereby regarding it as a pIC50 value. […]

Assay [4] relates to trachea. Put plainly: Tracheodilative effect (in vitro), Magnus method, trachea strips contracted with histamine. Conditions: Cavia porcellus; relaxation of guinea pig trachea strips contracted with 3 x 10^-6 M histamine; maximum relaxation by 10^-4 M isoproterenol = 100%; read-out: pIC50 value Histamine (converted). On the procedure:
as §2

Assay [5] relates to trachea. The assay is described as follows: Tracheodilative effect (in vitro), Magnus method, enucleated trachea contracted with LTD4. Conditions: Cavia porcellus; relaxation of enucleated guinea pig trachea contracted with LTD4 3 x 10^-8 M; read-out: pIC50 value LTD4 (converted). The method, then: as §2
The pIC50 values of the compounds according to the present invention on contraction by LTD4 (concentration: 3 x 10^-8 M) were determined by using the enucleated trachea in accordance with the Magnus method in the same manner as in Test Example 1. It turns out that the compounds according to the present invention are effective on the contraction by this agent.

Take `N#Cc1cnn2c3c(cnc12)CCN3C1CCCC1` [Compound 1, 3-cyano-8-cyclopentyl-6,7-dihydro-8H-pyrrolo[3,2-e]pyrazolo[1,5-a]pyrimidine]: the inhibition in vivo at 100 mg/kg in assay [1] was 33.4%; in assay [2] it was 22.2%.

Turning to `CCC(C)N1CCc2cnc3c(C#N)cnn3c21` (stereo not shown) [Compound 2, 8-sec-butyl-3-cyano-6,7-dihydro-8H-pyrrolo[3,2-e]pyrazolo[1,5-a]pyrimidine], the IC50 is 19.1 µM in assay [3] and 6.31 µM in assay [4]. Further, the inhibition in vivo at 100 mg/kg amounted to 50% in assay [1] and 52.2% in assay [2].

Regarding `N#Cc1cnn2c3c(c(Cl)nc12)CCN3C1CCCC1` [Compound 3, 5-chloro-3-cyano-8-cyclopentyl-6,7-dihydro-8H-pyrrolo[3,2-e]pyrazolo[1,5-a]pyrimidine], the inhibition in vivo at 100 mg/kg in assay [1] amounted to 22.8%; in assay [2], 7.7%.

Consider `CCC(C)N1CCc2c(Cl)nc3c(C#N)cnn3c21` (stereo not shown) [Compound 4, 8-sec-butyl-5-chloro-3-cyano-6,7-dihydro-8H-pyrrolo[3,2-e]pyrazolo[1,5-a]pyrimidine], for which the inhibition in vivo at 100 mg/kg in assay [1] was determined as 33.2%; in assay [2], 24.7%.

Regarding `N#Cc1cnn2c3c(c(N)nc12)CCN3C1CCCC1` [Compound 5, 5-amino-3-cyano-8-cyclopentyl-6,7-dihydro-8H-pyrrolo[3,2-e]pyrazolo[1,5-a]pyrimidine], the IC50 in assay [3] is 18.6 µM; in assay [4] it was 12.6 µM; in assay [5] it was 4.07 µM. For the same molecule, the inhibition in vivo at 100 mg/kg in assay [1] amounted to 32.1%; in assay [2], 52.9%.

For `N#Cc1cnn2c3c(c(N)nc12)CCN3C1CCCCC1` [Compound 6, 5-amino-3-cyano-8-cyclohexyl-6,7-dihydro-8H-pyrrolo[3,2-e]pyrazolo[1,5-a]pyrimidine], the IC50 was 22.4 µM in assay [3], 16.2 µM in assay [4] and 11.2 µM in assay [5].

Take `CCC(C)N1CCc2c(N)nc3c(C#N)cnn3c21` (stereo not shown) [Compound 7, 5-amino-8-sec-butyl-3-cyano-6,7-dihydro-8H-pyrrolo[3,2-e]pyrazolo[1,5-a]pyrimidine]: the IC50 was 18.2 µM in assay [3], 15.5 µM in assay [4] and 3.72 µM in assay [5]. Besides, the values for the inhibition in vivo at 100 mg/kg in assay [1] and in assay [2] were 36.5% and 49.8%, respectively.

As for `CC(C)(C)N1CCc2cnc3c(C#N)cnn3c21` [Compound 14, 8-tert-butyl-3-cyano-6,7-dihydro-8H-pyrrolo[3,2-e]pyrazolo[1,5-a]pyrimidine], the inhibition in vivo at 100 mg/kg in assay [1] amounted to 40.4%; in assay [2], 8.7%.

Take `CC(C)(C)N1CCc2c(Cl)nc3c(C#N)cnn3c21` [Compound 15, 8-tert-butyl-5-chloro-3-cyano-6,7-dihydro-8H-pyrrolo[3,2-e]pyrazolo[1,5-a]pyrimidine]: the results for the inhibition in vivo at 100 mg/kg in assay [1] and in assay [2] were 36.5% and 25.8%, respectively.

Regarding `CC(C)(C)N1CCc2c(N)nc3c(C#N)cnn3c21` [Compound 16, 5-amino-8-tert-butyl-3-cyano-6,7-dihydro-8H-pyrrolo[3,2-e]pyrazolo[1,5-a]pyrimidine], the IC50 is 23.4 µM in assay [3] and 16.2 µM in assay [4].

`Cn1c(=O)c2[nH]cnc2n(C)c1=O` [Theophylline, theophylline, reference compound]: the IC50 in assay [3] was 2950 µM; in assay [4] it was 977 µM; in assay [5], 112 µM. The inhibition in vivo at 100 mg/kg in assay [1] was 39.5%; in assay [2], 37.7%.
